These are literature values, as cited in patent publication US9974839B2, “Self-assembled toroidal-spiral particles and manufacture and uses thereof” (THE BOARD OF TRUSTEES OF THE UNIVERSITY OF ILLINOIS, priority 2009, dated 2018).

The subject of this series is mitogenic activity. Particulars: in vitro.

Turning to “mono-PEGylated epidermal growth factor (EGF) with PEG 3400 at Lys28 and Lys48: literature EGF mono-PEGylated with PEG 3400 at Lys28 and Lys48 (ref. 28) (NSDSECPLSHDGYCLHDGVCMYIEALDKYACNCVVGYIGERCQYRDLKWWELR; Epidermal growth factor PEG 3400; UniProt P01133 971-1023, looked up)”, the “mitogenic activity relative to EGF isomer PEGylated at the amino terminus” value is listed as “significantly less active”.
